Test results published in patent publication EP4806890A1, “CRYSTALLINE COMPOUND OR BASIC SALT THEREOF, PREPARATION METHOD THEREFOR, AND USE THEREOF” (Abbisko Therapeutics Co., Ltd., priority 2023, dated 2025).
Entries after “also recorded” stand apart in the source; their conditions may differ. Structures can show the parent of a compound that is named as a salt.

How the values were obtained:
Format in all cases: physicochemical
[1] = Hygroscopic behavior test by dynamic vapor sorption (DVS)
Text: The experimental method of characterizing the crystalline free form of the compound of formula (I) or the basic salt thereof using dynamic vapor sorption (DVS) is as follows: a small amount of the crystalline sample was placed in a precision sample tray that was compatible with the instrument; after the sample was loaded, the sample tray was placed into the instrument for analysis. In this patent, the instruments used for dynamic vapor sorption were all the DVS Intrinsic plus model, and the following experimental parameters were set: nitrogen was used as the carrier gas, a constant temperature of 25 °C was set, the rate of mass percentage change over a unit of time (dm/dt) = 0.002%/min was used as a criterion for determining if equilibrium is reached, and the program humidity change cycle was set to 50-95-0-95-50% RH; within the range of 0-90% RH, a change of 10% RH was taken as a step, and within the range of 90% RH-95% RH, a change of 5% RH was taken as a step.
In the present invention, the hygroscopic weight increases (hygroscopic weight increase/weight before hygroscopy * 100%) of various crystalline forms under various relative humidity conditions were determined using the dynamic vapor sorption method, and the hygroscopicity of different crystalline compounds was evaluated.

[2] = Stability determination (thermal stability and photostability, HPLC purity, appearance, XRPD); settings: for XRPD: crystalline form found; for crystalline form transformation (in words): high temperature and light exposure
Protocol: (§1) The stability and solubility of the crystalline free form of the compound of formula (I) or the basic salt thereof of the present application were determined by HPLC.
An appropriate amount of the sample was placed in a vial and left to stand at 50 °C, 80 °C or 50 °C & 75% RH (open) for 7 days to evaluate thermal stability. An appropriate amount of the sample was placed in a transparent vial, […] evaluation under conditions of overall near-ultraviolet energy of 1.2 * 10^6 Lux·hr and no less than 200 W·hr/m2.

[3] = Solubility determination (equilibrium solubility, 24 hrs stirring at room temperature, HPLC); settings: for Equilibrium solubility: target concentration 2000 µg/mL, 24 hrs; for pH24 hrs: pH of the filtrate after 24 hrs
Protocol: as §1
The desired amount of the compound was weighed into a glass vial, and the desired amount of a vehicle was added. A stir bar was added to the vial, and the mixture was stirred at room temperature for 24 hrs. After 24 hrs, the appearance of the sample was observed. An appropriate amount of the sample was filtered through a PVDF 0.45 µm filter membrane, and the filtrate was collected. The pH value of the filtrate was determined, and the sample was diluted with MeOH. The diluted sample was injected into an HPLC system to determine the concentration.

[4] = Relative humidity 0.0 % at 25 °C
[5] = Relative humidity 10.0 % at 25 °C
[6] = Relative humidity 20.0 % at 25 °C
[7] = Relative humidity 30.0 % at 25 °C
[8] = Relative humidity 40.0 % at 25 °C
[9] = Relative humidity 50.0 % at 25 °C
[10] = Relative humidity 60.0 % at 25 °C
[11] = Relative humidity 70.0 % at 25 °C
[12] = Relative humidity 80.0 % at 25 °C
[13] = 50 °C, 50 °C/75% RH or brown light exposure
[14] = Aluminum foil light exposure control, 9.2 days
[15] = Brown vial light exposure control, 9.2 days
[16] = Transparent light exposure, 9.2 days
[17] = pH 4.7, 50 mM acetic acid buffer
[18] = pH 6.8, 50 mM phosphoric acid buffer

## Cc1c(NC(=O)c2cc(C3CC3)c(CN3CCCC[C@H]3C(=O)O)cn2)cccc1-c1cccc(NC(=O)c2cc(C3CC3)c(CN3CCCC[C@H]3C(=O)O)cn2)c1C [crystalline form A of disodium salt hydrate] [(2S,2'S)-1,1'-(((((2,2'-dimethyl-[1,1'-biphenyl]-3,3'-diyl)bis(azanediyl))bis(carbonyl))bis(4-cyclopropylpyridine-6,3-diyl))bis(methylene))bis(piperidine-2-carboxylic acid)]
[1]; [4]
  Hygroscopic weight increase (%): 0.00%
[1]; [5]
  Hygroscopic weight increase (%): 2.40%
[1]; [6]
  Hygroscopic weight increase (%): 7.45%
[1]; [7]
  Hygroscopic weight increase (%): 9.28%
[1]; [8]
  Hygroscopic weight increase (%): 10.62%
[1]; [9]
  Hygroscopic weight increase (%): 11.64%
[1]; [10]
  Hygroscopic weight increase (%): 12.43%
[1]; [11]
  Hygroscopic weight increase (%): 13.25%
[1]; [12]
  Hygroscopic weight increase (%): 14.59%
[1]
  crystalline form changes after DVS testing: no crystalline form changes
[1]; at 80% RH
  weight increased: more than 10%
[2]; [13]
  physical and chemical stability (in words): relatively high physical and chemical stability
[2]; 50 °C, 7 days
  Appearance: White powder
  Purity (%): 99.45%
  XRPD: Crystalline form A of disodium salt
[2]; 50 °C/75%RH, 7 days
  Appearance: White powder
  Purity (%): 99.46%
  XRPD: Crystalline form A of disodium salt
[2]; 80 °C, 7 days
  Appearance: White powder
  Purity (%): 99.34%
  XRPD: Crystalline forms A + B of disodium salt
[2]; [14]
  Appearance: White powder
  Purity (%): 99.51%
  XRPD: Crystalline form A of disodium salt
[2]; [15]
  Appearance: White powder
  Purity (%): 99.50%
  XRPD: Crystalline form A of disodium salt
[2]; Initial, 0 days
  Appearance: White powder
  Purity (%): 99.38%
  XRPD: Crystalline form A of disodium salt
[2]; [16]
  Appearance: White powder
  Purity (%): 99.22%
  XRPD: Crystalline forms A + B of disodium salt
[2]
  crystalline form transformation (in words): underwent crystalline form transformation; also recorded: undergoes crystalline form transformation
[2]; various stability testing conditions, incl. high temperature and light exposure
  chemical stability (in words): good chemical stability; also recorded: relatively high chemical stability
[3]; FaSSGF
  Equilibrium solubility: 22 µg/mL
  pH24 hrs: 1.73
[3]; FaSSIF
  Equilibrium solubility: 303 µg/mL
  pH24 hrs: 6.93
[3]; FeSSIF
  Equilibrium solubility: > 2000 µg/mL
  pH24 hrs: 7.95
[3]; Water, room temperature
  Equilibrium solubility: > 2000 µg/mL
[3]; pH 1.2, HCl 100 mM
  Equilibrium solubility: 1120 µg/mL
  pH24 hrs: 1.01
[3]; [17]
  Equilibrium solubility: 25 µg/mL
  pH24 hrs: 4.61
[3]; [18]
  Equilibrium solubility: 34 µg/mL
  pH24 hrs: 6.88
[3]; Water
  pH24 hrs: 9.61

## Cc1c(NC(=O)c2cc(C3CC3)c(CN3CCCC[C@H]3C(=O)O)cn2)cccc1-c1cccc(NC(=O)c2cc(C3CC3)c(CN3CCCC[C@H]3C(=O)O)cn2)c1C [crystalline form B of disodium salt anhydrate] [(2S,2'S)-1,1'-(((((2,2'-dimethyl-[1,1'-biphenyl]-3,3'-diyl)bis(azanediyl))bis(carbonyl))bis(4-cyclopropylpyridine-6,3-diyl))bis(methylene))bis(piperidine-2-carboxylic acid)]
[2]; [13]
  physical and chemical stability (in words): relatively high physical and chemical stability
[2]; 50 °C, 7 days
  Appearance: White powder
  Purity (%): 92.11%
  XRPD: Crystalline form B of disodium salt
[2]; 50 °C/75%RH, 7 days
  Appearance: White powder
  Purity (%): 92.97%
  XRPD: Crystalline form B of disodium salt
[2]; 80 °C, 7 days
  Appearance: White powder
  Purity (%): 90.77%
  XRPD: Crystalline form B of disodium salt
[2]; [14]
  Appearance: White powder
  Purity (%): 89.50%
  XRPD: Crystalline form B of disodium salt
[2]; [15]
  Appearance: White powder
  Purity (%): 88.10%
  XRPD: Crystalline form B of disodium salt
[2]; Initial, 0 days
  Appearance: White powder
  Purity (%): 91.23%
  XRPD: Crystalline form B of disodium salt
[2]; [16]
  Appearance: White powder
  Purity (%): 83.10%
  XRPD: Crystalline form B of disodium salt
[2]
  crystalline form transformation (in words): no crystalline form transformation was observed
[2]; light exposure
  sensitivity to light (in words): sensitive to light exposure
[2]; stability testing conditions, incl. high temperature and high humidity
  physical stability (in words): good physical stability; also recorded: relatively high physical stability
[3]; FaSSGF
  Equilibrium solubility: 485 µg/mL
  pH24 hrs: 1.72
[3]; FaSSIF
  Equilibrium solubility: 474 µg/mL
  pH24 hrs: 6.93
[3]; FeSSIF
  Equilibrium solubility: ≥ 2000 µg/mL
  pH24 hrs: 6.90
[3]; Water, room temperature
  Equilibrium solubility: ≥ 2000 µg/mL
[3]; pH 1.2, HCl 100 mM
  Equilibrium solubility: ≥ 2000 µg/mL
  pH24 hrs: 0.95
[3]; [17]
  Equilibrium solubility: 135 µg/mL
  pH24 hrs: 4.92
[3]; [18]
  Equilibrium solubility: 194 µg/mL
  pH24 hrs: 7.03
[3]; Water
  pH24 hrs: 9.96
[3]; various pH conditions, buffers and biological medium solutions
  solubility (in words): excellent solubility

## Cc1c(NC(=O)c2cc(C3CC3)c(CN3CCCC[C@H]3C(=O)O)cn2)cccc1-c1cccc(NC(=O)c2cc(C3CC3)c(CN3CCCC[C@H]3C(=O)O)cn2)c1C [free-form crystalline form C, (2S,2'S)-1,1'-(((((2,2'-dimethyl-[1,1'-biphenyl]-3,3'-diyl)bis(azanediyl))bis(carbonyl))bis(4-cyclopropylpyridine-6,3-diyl))bis(methylene))bis(piperidine-2-carboxylic acid)]
[1]; DVS, 25 °C
  hygroscopicity (in words): moderately hygroscopic; also recorded: moderate hygroscopicity
[1]; [4]
  Hygroscopic weight increase (%): 0.00%
[1]; [5]
  Hygroscopic weight increase (%): 0.50%
[1]; [6]
  Hygroscopic weight increase (%): 0.75%
[1]; [7]
  Hygroscopic weight increase (%): 0.80%
[1]; [8]
  Hygroscopic weight increase (%): 1.20%
[1]; [9]
  Hygroscopic weight increase (%): 1.35%
[1]; [10]
  Hygroscopic weight increase (%): 1.50%
[1]; [11]
  Hygroscopic weight increase (%): 1.75%
[1]; [12]
  Hygroscopic weight increase (%): 2.21%
[1]; Relative humidity 90.0 % at 25 °C
  Hygroscopic weight increase (%): 2.95%
[1]
  crystalline form changes after DVS testing: no crystalline form changes
[2]; 50 °C, 50 °C/75% RH (open), 80 °C for 7 days and photostress for 10 days
  physical and chemical stability (in words): extremely high physical and chemical stability
[2]; 50 °C, 7 days
  Appearance: White powder
  Purity (%): 98.31%
  XRPD: Free-form crystalline form C
[2]; 50 °C/75%RH, 7 days
  Appearance: White powder
  Purity (%): 98.43%
  XRPD: Free-form crystalline form C
[2]; 80 °C, 7 days
  Appearance: White powder
  Purity (%): 97.90%
  XRPD: Free-form crystalline form C
[2]; [14]
  Appearance: White powder
  Purity (%): 98.51%
  XRPD: Free-form crystalline form C
[2]; Initial, 0 days
  Appearance: White powder
  Purity (%): 98.42%
  XRPD: Free-form crystalline form C
[2]; [16]
  Appearance: White powder
  Purity (%): 97.91%
  XRPD: Free-form crystalline form C
[3]; FaSSGF
  Equilibrium solubility: 8.9 µg/mL
  pH24 hrs: 1.56
[3]; FaSSIF
  Equilibrium solubility: 3.21 µg/mL
  pH24 hrs: 6.41
[3]; FeSSIF
  Equilibrium solubility: 5.34 µg/mL
  pH24 hrs: 4.90
[3]; Water, room temperature
  Equilibrium solubility: 3.84 µg/mL
[3]; buffer system having a pH of 1.2, compared to the other test conditions
  solubility (in words): improved solubility
[3]; pH 1.2, HCl 100 mM
  Equilibrium solubility: 18.92 µg/mL
  pH24 hrs: 1.30
[3]; [17]
  Equilibrium solubility: 3.3 µg/mL
  pH24 hrs: 4.77
[3]; [18]
  Equilibrium solubility: 2.31 µg/mL
  pH24 hrs: 6.89
[3]; Water
  pH24 hrs: 6.78
